This note sets out measurements from US11826351B2, “Compounds useful as kinase inhibitors” (Loxo Oncology, Inc., priority 2015, dated 2023).

Assay [1] concerns the target T1, Recombinant BTK^WT kinase (Homo sapiens, UniProt Q06187).
T1 construct: purchased Invitrogen
Description: BTK WT binding affinity (LanthaScreen TR-FRET). The following applies: Kinase Tracer 236, 5 h incubation. The essentials:
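IC50 obtained by variable-slope fit of TR-FRET signal (ex 340 nm; em 615 and 665 nm) versus inhibitor concentration. Reaction held for 5 h in LanthaScreen Kinase Buffer A with 2.5 nM His-tagged BTK^WT, 15 nM Kinase Tracer 236 and 2 nM Eu anti-His antibody.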
For orientation: In TR-FRET formats the signal depends on donor and acceptor labels being close together.

Assay [2] deals with T2, Recombinant BTK^C481S kinase (Homo sapiens, UniProt Q06187, C481S).
T2 construct: purchased SignalChem
Description: BTK C481S binding affinity (LanthaScreen TR-FRET). To be noted: Kinase Tracer 236, 5 h incubation. In short, it runs like this:
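BTK C481S tracer-displacement TR-FRET: 5 nM His-tagged kinase, 2 nM Eu anti-His antibody and 30 nM Kinase Tracer 236 incubated with titrated inhibitor for 5 h in Kinase Buffer A. Read at 340 nm excitation, 615/665 nm emission; IC50 from variable-slope log[inhibitor]–response fit.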

Assay [3] has as its target T3, Recombinant EGFR (Homo sapiens, UniProt P00533).
T3 construct: purchased Invitrogen
Description: EGFR binding affinity (LanthaScreen TR-FRET). The following applies: Kinase Tracer 199, 5 h incubation. In short, it runs like this: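 Compounds were titrated against recombinant EGFR and binding was followed by LanthaScreen time-resolved FRET.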

The test system of assay [4] is OCI-Ly10 human DLBCL cells. The assay is described as follows: OCI-Ly10 anti-proliferative activity (Resazurin). The format is cell-based. The following applies: Homo sapiens, OCI-Ly10, 72 h, OCI-Ly10 cells, 72 h compound treatment, Resazurin; read-out: Proliferation Assay OCI-Ly10-20% FBS. The essentials: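 A separate untreated plate gave the Day 0 reading, measured by Resazurin fluorescence at 590 nm after 5 h. The average Day 0 value was subtracted from each treated well, and results were expressed as percent of DMSO control. IC50 values came from a log[Inhibitor] vs response Variable Slope fit in Graphpad prism.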
(In general: The colour change of resazurin is a common sign of viable cells or microbes.)

The structures appear in SMILES notation.

T2 sequence (Q06187 whole entry C481S): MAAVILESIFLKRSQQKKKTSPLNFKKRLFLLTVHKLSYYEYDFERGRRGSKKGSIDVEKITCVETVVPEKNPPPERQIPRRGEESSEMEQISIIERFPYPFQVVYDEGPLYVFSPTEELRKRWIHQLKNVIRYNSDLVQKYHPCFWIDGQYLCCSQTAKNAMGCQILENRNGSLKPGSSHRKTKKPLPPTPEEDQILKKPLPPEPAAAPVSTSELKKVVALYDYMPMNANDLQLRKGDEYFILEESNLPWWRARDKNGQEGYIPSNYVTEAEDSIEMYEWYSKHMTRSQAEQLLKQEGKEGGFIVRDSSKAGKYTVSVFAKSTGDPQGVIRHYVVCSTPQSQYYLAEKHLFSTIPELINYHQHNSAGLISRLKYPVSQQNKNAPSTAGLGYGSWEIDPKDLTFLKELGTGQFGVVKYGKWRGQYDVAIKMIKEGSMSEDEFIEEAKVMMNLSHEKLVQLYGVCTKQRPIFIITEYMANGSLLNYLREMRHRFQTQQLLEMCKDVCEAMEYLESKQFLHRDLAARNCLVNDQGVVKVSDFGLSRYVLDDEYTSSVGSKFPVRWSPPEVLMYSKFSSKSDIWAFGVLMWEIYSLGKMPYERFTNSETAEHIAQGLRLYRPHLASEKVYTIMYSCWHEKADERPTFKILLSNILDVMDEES
T1 sequence (Q06187 whole entry): as the sequence (Q06187 whole entry C481S) above, with S481C counted along it
T3 sequence (P00533 25-1210): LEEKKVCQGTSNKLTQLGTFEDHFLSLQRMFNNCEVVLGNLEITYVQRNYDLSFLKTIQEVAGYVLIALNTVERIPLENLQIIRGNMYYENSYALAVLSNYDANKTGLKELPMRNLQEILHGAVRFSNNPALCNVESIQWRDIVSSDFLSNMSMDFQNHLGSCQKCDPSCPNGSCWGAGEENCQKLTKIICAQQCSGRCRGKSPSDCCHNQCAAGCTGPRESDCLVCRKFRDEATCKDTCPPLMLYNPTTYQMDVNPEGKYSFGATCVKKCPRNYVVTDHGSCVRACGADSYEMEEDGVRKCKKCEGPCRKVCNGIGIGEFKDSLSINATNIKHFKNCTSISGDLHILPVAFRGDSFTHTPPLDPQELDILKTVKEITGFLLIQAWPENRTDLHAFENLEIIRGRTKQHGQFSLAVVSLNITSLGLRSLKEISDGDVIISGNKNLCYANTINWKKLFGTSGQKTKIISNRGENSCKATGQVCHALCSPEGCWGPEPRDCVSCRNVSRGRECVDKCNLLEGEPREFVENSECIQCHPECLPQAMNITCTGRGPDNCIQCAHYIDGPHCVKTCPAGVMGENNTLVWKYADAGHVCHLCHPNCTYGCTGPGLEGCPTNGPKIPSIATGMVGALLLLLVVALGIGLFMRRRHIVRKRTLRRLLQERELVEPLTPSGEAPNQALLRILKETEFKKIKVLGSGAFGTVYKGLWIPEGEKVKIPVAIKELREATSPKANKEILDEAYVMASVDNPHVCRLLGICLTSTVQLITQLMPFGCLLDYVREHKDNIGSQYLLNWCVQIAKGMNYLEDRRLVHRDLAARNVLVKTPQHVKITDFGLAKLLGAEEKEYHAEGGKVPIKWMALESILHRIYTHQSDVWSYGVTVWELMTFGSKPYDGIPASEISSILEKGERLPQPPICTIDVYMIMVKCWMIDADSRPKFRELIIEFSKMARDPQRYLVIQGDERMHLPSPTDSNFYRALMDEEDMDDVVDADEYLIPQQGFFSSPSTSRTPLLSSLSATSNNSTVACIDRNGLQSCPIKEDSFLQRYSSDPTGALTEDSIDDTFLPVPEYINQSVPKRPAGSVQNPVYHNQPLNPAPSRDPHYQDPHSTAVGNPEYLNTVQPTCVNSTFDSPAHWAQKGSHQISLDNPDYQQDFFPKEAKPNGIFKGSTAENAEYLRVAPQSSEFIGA

For `COc1ccccc1C(=O)NCc1ccc(-c2nn(-c3ccc(CO)cc3)c(N)c2C(N)=O)cc1` [Example 49, 5-amino-1-[4-(hydroxymethyl)phenyl]-3-[4-[[(2-methoxybenzoyl)amino]methyl]phenyl]pyrazole-4-carboxamide], the IC50 is less than 10 nM in assay [1], less than 10 nM in assay [2], 100 to 1000 nM in assay [3] and 10 to 100 nM in assay [4].
On to `COc1ccccc1C(=O)NCc1ccc(-c2nn(-c3ccccn3)c(N)c2C(N)=O)cc1` [Example 53, 5-amino-3-[4-[[(2-methoxybenzoyl)amino]methyl]phenyl]-1-(2-pyridyl)pyrazole-4-carboxamide], for which the IC50 is less than 10 nM in assay [1], less than 10 nM in assay [2], 100 to 1000 nM in assay [3] and 10 to 100 nM in assay [4].
Regarding `COc1ccccc1C(=O)NCc1ccc(-c2nn(C3CCCC3)c(NC(C)C)c2C(N)=O)cc1` [Example 72, 1-cyclopentyl-5-(isopropylamino)-3-[4-[[(2-methoxybenzoyl)amino]methyl]phenyl]pyrazole-4-carboxamide], the IC50 in assay [1] is 10 to 100 nM; in assay [2] it was less than 10 nM; in assay [3] it was 1000 to 10000 nM; in assay [4] it was 100 to 1000 nM.
Turning to `COc1ccccc1C(=O)NCc1ccc(-c2nn(C[C@@H]3CCCNC3)c(N)c2C(N)=O)cc1` [Example 38, 5-amino-3-[4-[[(2-methoxybenzoyl)amino]methyl]phenyl]-1-[[(3R)-3-piperidyl]methyl]pyrazole-4-carboxamide], the IC50 is greater than 10000 nM in assay [1], 1000 to 10000 nM in assay [2], greater than 10000 nM in assay [3] and greater than 10000 nM in assay [4].
On to `COc1ccccc1C(=O)NCc1ccc(-c2nn(C3CC(O)c4ccccc43)c(N)c2C(N)=O)cc1` (stereo not drawn) [Example 63, 5-amino-1-(3-hydroxyindan-1-yl)-3-[4-[[(2-methoxybenzoyl)amino]methyl]phenyl]pyrazole-4-carboxamide], for which the IC50 in assay [1] is less than 10 nM; in assay [2] it was less than 10 nM; in assay [3] it was 100 to 1000 nM; in assay [4], 10 to 100 nM.
`COc1ccccc1C(=O)NCc1ccc(-c2nn(C3CC(=O)c4ccccc43)c(N)c2C(N)=O)cc1` (stereo not drawn) [Example 59, 5-amino-3-[4-[[(2-methoxybenzoyl)amino]methyl]phenyl]-1-(3-oxoindan-1-yl)pyrazole-4-carboxamide]: the IC50 in assay [1] is less than 10 nM; in assay [2], less than 10 nM; in assay [3], 1000 to 10000 nM; in assay [4], 10 to 100 nM.
As to `COc1ccc(F)cc1C(=O)NCc1ccc(-c2nn(C3CCN(C)CC3(F)F)c(N)c2C(N)=O)cc1` (stereo not drawn) [Example 191, 5-amino-1-(3,3-difluoro-1-methyl-4-piperidyl)-3-[4-[[(5-fluoro-2-methoxy-benzoyl)amino]methyl]phenyl]pyrazole-4-carboxamide], the IC50 in assay [1] was less than 10 nM; in assay [2] it was less than 10 nM; in assay [3] it was 1000 to 10000 nM; in assay [4], 10 to 100 nM.
Take `COc1ccccc1C(=O)NCc1ccc(-c2nn(CC(O)C(C)(C)C)c(N)c2C(N)=O)cc1` (stereo not drawn) [Example 14, 5-Amino-1-(2-hydroxy-3,3-dimethyl-butyl)-3-[4-[[(2-methoxybenzoyl)amino]methyl]phenyl]pyrazole-4-carboxamide]: the IC50 in assay [1] was in the range of 10 to 100 nM; in assay [2] it was 10 to 100 nM; in assay [3], 1000 to 10000 nM; in assay [4], 100 to 1000 nM.
In the case of `COc1ccccc1C(=O)NCc1ccc(-c2nn(C3CNCC3(F)F)c(N)c2C(N)=O)cc1F` (stereo not drawn) [Example 160, 5-amino-1-(4,4-difluoropyrrolidin-3-yl)-3-[3-fluoro-4-[[(2-methoxybenzoyl)amino]methyl]phenyl]pyrazole-4-carboxamide], the IC50 in assay [1] was 10 to 100 nM; in assay [2], less than 10 nM; in assay [3], 1000 to 10000 nM; in assay [4] it was 100 to 1000 nM.
In the case of `COc1ccc(F)cc1C(=O)NCc1ccc(-c2nn(C(C3CCOC3)C(F)(F)F)c(N)c2C(N)=O)cc1` (mixture of isomers) [Example 175, 5-amino-3-[4-[[(5-fluoro-2-methoxy-benzoyl)amino]methyl]phenyl]-1-(2,2,2-trifluoro-1-tetrahydrofuran-3-yl-ethyl)pyrazole-4-carboxamide], the IC50 in assay [1] fell in the range of 10 to 100 nM; in assay [2] it was 10 to 100 nM; in assay [3] it was 1000 to 10000 nM; in assay [4], 100 to 1000 nM.
With `COc1ccccc1C(=O)NCc1ccc(-c2nn(C3CC3)c(N)c2C(N)=O)cc1` [Example 29, 5-Amino-1-cyclopropyl-3-[4-[[(2-methoxybenzoyl)amino]methyl]phenyl]pyrazole-4-carboxamide], the IC50 is less than 10 nM in assay [1], less than 10 nM in assay [2], 1000 to 10000 nM in assay [3] and 100 to 1000 nM in assay [4].
For `CNc1c(C(N)=O)c(-c2ccc(CNC(=O)c3ccccc3OC)cc2)nn1C1CCOCC1` [Example 91, 3-[4-[[(2-methoxybenzoyl)amino]methyl]phenyl]-5-(methylamino)-1-tetrahydropyran-4-yl-pyrazole-4-carboxamide], the IC50 in assay [1] was 10 to 100 nM; in assay [2] it was less than 10 nM; in assay [3], 1000 to 10000 nM; in assay [4], 100 to 1000 nM.
In the same order, the values of `COc1ccccc1C(=O)NCc1ccc(-c2nn(-c3ccc(F)c(F)c3)c(N)c2C(N)=O)cc1` [Example 98, 5-amino-1-(3,4-difluorophenyl)-3-[4-[[(2-methoxybenzoyl)amino]methyl]phenyl]pyrazole-4-carboxamide] are less than 10 nM, less than 10 nM, 1000 to 10000 nM and 100 to 1000 nM.
The corresponding values for `COc1ccccc1C(=O)NCc1cc(F)c(-c2nn(C3CCOC3)c(N)c2C(N)=O)cc1F` (stereo not drawn) [Example 152, 5-amino-3-[2,5-difluoro-4-[[(2-methoxybenzoyl)amino]methyl]phenyl]-1-tetrahydrofuran-3-yl-pyrazole-4-carboxamide] are 10 to 100 nM, 10 to 100 nM, greater than 10000 nM and 100 to 1000 nM.
The corresponding values for `COc1ccccc1C(=O)NCc1ccc(-c2nn([C@H]3CC[C@H](O)C3)c(N)c2C(N)=O)cc1` (relative stereo) [Example 46, 5-Amino-1-[(1S*,3S*)-3-hydroxycyclopentyl]-3-[4-[[(2-methoxybenzoyl)amino]methyl]phenyl]pyrazole-4-carboxamide] are less than 10 nM, less than 10 nM, 100 to 1000 nM and 10 to 100 nM.
With `COc1ccc(F)cc1C(=O)NCc1ccc(-c2nn(C(C)C(F)(F)F)c(N)c2C(N)=O)cc1F` (stereo not drawn) [Example 177, 5-amino-3-[3-fluoro-4-[[(5-fluoro-2-methoxy-benzoyl)amino]methyl]phenyl]-1-(2,2,2-trifluoro-1-methyl-ethyl)pyrazole-4-carboxamide], the IC50 in assay [1] is less than 10 nM; in assay [2], less than 10 nM; in assay [3] it was 1000 to 10000 nM; in assay [4] it was 10 to 100 nM.
In the case of `COc1ccccc1C(=O)NCc1cc(F)c(-c2nn(C3CCCOC3)c(N)c2C(N)=O)cc1F` (stereo not drawn) [Example 151, 5-amino-3-[2,5-difluoro-4-[[(2-methoxybenzoyl)amino]methyl]phenyl]-1-tetrahydropyran-3-yl-pyrazole-4-carboxamide], the IC50 in assay [1] is less than 10 nM; in assay [2] it was less than 10 nM; in assay [3], 1000 to 10000 nM; in assay [4] it was 100 to 1000 nM.
As to `COc1ccccc1C(=O)NCc1ccc(-c2nn(C3CCC(=O)C3)c(N)c2C(N)=O)cc1` (stereo not drawn) [Example 13, 5-Amino-3-[4-[[(2-methoxybenzoyl)amino]methyl]phenyl]-1-(3-oxocyclopentyl)pyrazole-4-carboxamide], the IC50 in assay [1] was less than 10 nM; in assay [2] it was less than 10 nM; in assay [3], 1000 to 10000 nM; in assay [4], 100 to 1000 nM.
Take `CCC(n1nc(-c2ccc(CNC(=O)c3ccccc3OC)cc2)c(C(N)=O)c1N)C(F)(F)F` (stereo not drawn) [Example 170, 5-amino-3-[4-[[(2-methoxybenzoyl)amino]methyl]phenyl]-1-[1-(trifluoromethyl)propyl]pyrazole-4-carboxamide]: the IC50 is 10 to 100 nM in assay [1], less than 10 nM in assay [2], 1000 to 10000 nM in assay [3] and 100 to 1000 nM in assay [4].
Turning to `COc1ccc(F)cc1C(=O)NCc1ccc(-c2nn(C(CCO)C(F)F)c(N)c2C(N)=O)cc1` (stereo not drawn) [Example 193, 5-Amino-1-[1-(difluoromethyl)-3-hydroxy-propyl]-3-[4-[[(5-fluoro-2-methoxy-benzoyl)amino]methyl]phenyl]pyrazole-4-carboxamide], the IC50 in assay [1] was 10 to 100 nM; in assay [2], less than 10 nM; in assay [3], 1000 to 10000 nM; in assay [4], 100 to 1000 nM.
On to `COc1ccc(F)cc1C(=O)NCc1ccc(-c2nn(C3COCC3(F)F)c(N)c2C(N)=O)cc1` (stereo not drawn) [Example 200, 5-amino-1-(4,4-difluorotetrahydrofuran-3-yl)-3-[4-[[(5-fluoro-2-methoxy-benzoyl)amino]methyl]phenyl]pyrazole-4-carboxamide], for which the IC50 is less than 10 nM in assay [1], less than 10 nM in assay [2], 1000 to 10000 nM in assay [3] and 10 to 100 nM in assay [4].
